Data published in ChEMBL document CHEMBL3885881, “DrugMatrix”.

Species: Rattus norvegicus
Assay: DrugMatrix - Regimen: Daily Repeat
Assay type: toxicity, organism-based, Sprague-Dawley
Set-up: regimen Daily Repeat, gender Male, age 6-8 weeks
Details: in vivo, po, route oral GAVAGE, vehicle 100 % WATER; for ABSOLUTE BASOPHIL / ABSOLUTE EOSINOPHIL / ABSOLUTE LYMPHOCYTE / ABSOLUTE MONOCYTE / ABSOLUTE SEGMENTED NEUTROPHIL / BASOPHIL / EOSINOPHIL / ERYTHROCYTE COUNT / HEMATOCRIT / HEMOGLOBIN / LEUKOCYTE COUNT / LYMPHOCYTE / MEAN CORPUSCULAR HEMOGLOBIN / MEAN CORPUSCULAR HEMOGLOBIN CONCENTRATION / MEAN CORPUSCULAR VOLUME / MONOCYTE / NEUTROPHIL / NUCLEATED RED BLOOD CELLS / PLATELET COUNT: tissue Blood; for ALANINE AMINOTRANSFERASE / ALBUMIN / ALKALINE PHOSPHATASE / ASPARTATE AMINOTRANSFERASE / BLOOD UREA NITROGEN / CARBON DIOXIDE / CHLORIDE / CHOLESTEROL / CREATINE PHOSPHOKINASE / CREATININE / GLUCOSE / LACTATE DEHYDROGENASE / LIPASE / PHOSPHORUS / POTASSIUM / SODIUM / TOTAL BILIRUBIN / TOTAL PROTEIN / URIC ACID: tissue Plasma
[1] = 0 mg/kg, 72 h, dose level Control, time 3 day
[2] = 0 mg/kg, 120 h, dose level Control, time 5 day
[3] = 50 mg/kg, 72 h, dose level Low, time 3 day

SMILES: Cc1ncc([N+](=O)[O-])n1CCO [METRONIDAZOLE]
- ABSOLUTE BASOPHIL [1]: 0 CELLS/uL
- ABSOLUTE EOSINOPHIL [1]: 86.33 CELLS/uL
- ABSOLUTE LYMPHOCYTE [1]: 12090.17 CELLS/uL
- ABSOLUTE MONOCYTE [1]: 166.67 CELLS/uL
- ABSOLUTE SEGMENTED NEUTROPHIL [1]: 1090.17 CELLS/uL
- BASOPHIL [1]: 0%
- EOSINOPHIL [1]: 0.67%
- ERYTHROCYTE COUNT [1]: 5.57 x10E6/uL
- HEMATOCRIT [1]: 35.33%
- HEMOGLOBIN [1]: 13.83 G/DL
- LEUKOCYTE COUNT [1]: 13.43 x10E3/uL
- LYMPHOCYTE [1]: 89.83%
- MEAN CORPUSCULAR HEMOGLOBIN [1]: 24.88 pg
- MEAN CORPUSCULAR HEMOGLOBIN CONCENTRATION [1]: 39.15 G/DL
- MEAN CORPUSCULAR VOLUME [1]: 63.52 fL
- MONOCYTE [1]: 1.17%
- NEUTROPHIL [1]: 8.33%
- NUCLEATED RED BLOOD CELLS [1]: 0 /100WBC
- PLATELET COUNT [1]: 1181.33 x10E3/uL
- ALANINE AMINOTRANSFERASE [1]: 48.33 u/L
- ALBUMIN [1]: 4.1 G/DL
- ALKALINE PHOSPHATASE [1]: 395 u/L
- ASPARTATE AMINOTRANSFERASE [1]: 81.83 u/L
- BLOOD UREA NITROGEN [1]: 15.83 mg/dL
- CARBON DIOXIDE [1]: 24.17 mmol/L
- CHLORIDE [1]: 103.83 MEQ/L
- CHOLESTEROL [1]: 63.67 mg/dL
- CREATINE PHOSPHOKINASE [1]: 372.83 u/L
- CREATININE [1]: 0.18 mg/dL
- GLUCOSE [1]: 173.83 mg/dL
- LACTATE DEHYDROGENASE [1]: 188.33 u/L
- LIPASE [1]: 9.5 u/L
- PHOSPHORUS [1]: 11.95 mg/dL
- POTASSIUM [1]: 5.99 MEQ/L
- SODIUM [1]: 144.43 MEQ/L
- TOTAL BILIRUBIN [1]: 0.15 mg/dL
- TOTAL PROTEIN [1]: 5.95 G/DL
- URIC ACID [1]: 1.82 mg/dL
- ABSOLUTE BASOPHIL [2]: 0 CELLS/uL
- ABSOLUTE EOSINOPHIL [2]: 26.67 CELLS/uL
- ABSOLUTE LYMPHOCYTE [2]: 7583.83 CELLS/uL
- ABSOLUTE MONOCYTE [2]: 131.33 CELLS/uL
- ABSOLUTE SEGMENTED NEUTROPHIL [2]: 674.83 CELLS/uL
- BASOPHIL [2]: 0%
- EOSINOPHIL [2]: 0.33%
- ERYTHROCYTE COUNT [2]: 5.78 x10E6/uL
- HEMATOCRIT [2]: 36.48%
- HEMOGLOBIN [2]: 14.03 G/DL
- LEUKOCYTE COUNT [2]: 8.42 x10E3/uL
- LYMPHOCYTE [2]: 89.83%
- MEAN CORPUSCULAR HEMOGLOBIN [2]: 24.3 pg
- MEAN CORPUSCULAR HEMOGLOBIN CONCENTRATION [2]: 38.52 G/DL
- MEAN CORPUSCULAR VOLUME [2]: 63.15 fL
- MONOCYTE [2]: 1.67%
- NEUTROPHIL [2]: 8.17%
- NUCLEATED RED BLOOD CELLS [2]: 0 /100WBC
- PLATELET COUNT [2]: 1186.67 x10E3/uL
- ALANINE AMINOTRANSFERASE [2]: 50.17 u/L
- ALBUMIN [2]: 4.07 G/DL
- ALKALINE PHOSPHATASE [2]: 367.5 u/L
- ASPARTATE AMINOTRANSFERASE [2]: 81.67 u/L
- BLOOD UREA NITROGEN [2]: 16.17 mg/dL
- CARBON DIOXIDE [2]: 32.33 mmol/L
- CHLORIDE [2]: 101.5 MEQ/L
- CHOLESTEROL [2]: 65.33 mg/dL
- CREATINE PHOSPHOKINASE [2]: 255.33 u/L
- CREATININE [2]: 0.17 mg/dL
- GLUCOSE [2]: 139.33 mg/dL
- LACTATE DEHYDROGENASE [2]: 95 u/L
- LIPASE [2]: 10.5 u/L
- PHOSPHORUS [2]: 10.38 mg/dL
- POTASSIUM [2]: 6.11 MEQ/L
- SODIUM [2]: 145.55 MEQ/L
- TOTAL BILIRUBIN [2]: 0.17 mg/dL
- TOTAL PROTEIN [2]: 5.98 G/DL
- URIC ACID [2]: 0.93 mg/dL
- ABSOLUTE BASOPHIL [3]: 0 CELLS/uL
- ABSOLUTE EOSINOPHIL [3]: 59.33 CELLS/uL
- ABSOLUTE LYMPHOCYTE [3]: 15201.67 CELLS/uL
- ABSOLUTE MONOCYTE [3]: 170 CELLS/uL
- ABSOLUTE SEGMENTED NEUTROPHIL [3]: 1569 CELLS/uL
- BASOPHIL [3]: 0%
- EOSINOPHIL [3]: 0.33%
- ERYTHROCYTE COUNT [3]: 5.47 x10E6/uL
- HEMATOCRIT [3]: 35.2%
- HEMOGLOBIN [3]: 13.83 G/DL
- LEUKOCYTE COUNT [3]: 17 x10E3/uL
- LYMPHOCYTE [3]: 88.67%
- MEAN CORPUSCULAR HEMOGLOBIN [3]: 25.3 pg
- MEAN CORPUSCULAR HEMOGLOBIN CONCENTRATION [3]: 39.3 G/DL
- MEAN CORPUSCULAR VOLUME [3]: 64.4 fL
- MONOCYTE [3]: 1%
- NEUTROPHIL [3]: 10%
- NUCLEATED RED BLOOD CELLS [3]: 0 /100WBC
- PLATELET COUNT [3]: 1236.33 x10E3/uL
- ALANINE AMINOTRANSFERASE [3]: 54.33 u/L
- ALBUMIN [3]: 3.9 G/DL
- ALKALINE PHOSPHATASE [3]: 296.67 u/L
- ASPARTATE AMINOTRANSFERASE [3]: 72 u/L
- BLOOD UREA NITROGEN [3]: 13.67 mg/dL
- CARBON DIOXIDE [3]: 28.33 mmol/L
- CHLORIDE [3]: 100.67 MEQ/L
- CHOLESTEROL [3]: 65 mg/dL
- CREATINE PHOSPHOKINASE [3]: 186.33 u/L
- CREATININE [3]: 0.12 mg/dL
- GLUCOSE [3]: 155.67 mg/dL
- LACTATE DEHYDROGENASE [3]: 82.33 u/L
- LIPASE [3]: 9.33 u/L
- PHOSPHORUS [3]: 12.27 mg/dL
- POTASSIUM [3]: 6.41 MEQ/L
- SODIUM [3]: 142.37 MEQ/L
- TOTAL BILIRUBIN [3]: 0.17 mg/dL
- TOTAL PROTEIN [3]: 5.6 G/DL
- URIC ACID [3]: 1.5 mg/dL
